# Literature values in patent US6617356B2, “Gel system for oral and topical administration of water insoluble and/or water intolerant drugs and supplements” (priority 2000, dated 2003).
# Conditions: oral, 20 grams creatine monohydrate per day for five days
smiles,measurement,value
CN(CC(=O)O)C(=N)N.O [creatine monohydrate],Muscle total creatine concentration,increase
same,Peak and total work production,cumulative increase
